Measured values from patent publication US12071402B2, “Immunosuppressant formulations” (Novartis AG, priority 2011, dated 2024).

Assay: Stability of NVS-A in mixtures with various compounds, 50° C./75% RH, 4 weeks, HPLC assay
Format: physicochemical
Details: vial
Description: The following Example illustrates the stability of the hemifumarate salt of 1-{4-[1-(4-cyclohexyl-3-trifluoromethyl-benzyloxyimino)-ethyl]-2-ethyl-benzyl}-azetidine-3-carboxylic acid in the presence of various compounds. Mixtures of this API with various compounds were exposed in a sealed vial to conditions of 50° C. temperature and 75% relative humidity for 4 weeks. After 4 weeks, the API degradation and sum of degradation products were assayed.
Assay method: HPLC using agilent […] and a Phenomenex Gemini C18 column. UV detection at 260 nm was used. The mobile phase used was a gradient water-acetonitrile containing 0.2% (v/v) formic acid and 10% (v/v) Triethylamine.

Assay (%)*: 100.2% | Sum of unknown peaks (%)*: 1.86%
Compound: CCc1cc(C(C)=NOCc2ccc(C3CCCCC3)c(C(F)(F)F)c2)ccc1CN1CC(C(=O)O)C1 [NVS-A, 1-{4-[1-(4-cyclohexyl-3-trifluoromethyl-benzyloxyimino)-ethyl]-2-ethyl-benzyl}-azetidine-3-carboxylic acid]
